Test results published in US4000297A, “N-p-chlorobenzoyl tryptophane, salts and compositions thereof” (priority 1971, dated 1976).
Structures can show the parent of a compound that is named as a salt. Where two headings read alike, the source gives them in different places.

Experiments:
[1] = tested on: transit through the stomach and intestine; experiment: Anti-spastic activity, vegetable carbon (charcoal) test, rate of transit through the stomach and intestine; format: in vivo, mice; settings: for Antispastic activity ED50: 120 min; for ED50: Mus musculus, 2 h; for Ratio 3/2: anti-secretive ED50 / anti-spastic ED50 (Table 3)
Procedure: Particularly marked is the anti-spastic activity which the present compounds exercise on the entire digestive system. Measured in the mouse, using the vegetable carbon test (rate of transit through the stomach and intestine), this activity is in some cases comparatively greater than the anti-secretive activity (Table 3).
(*)The antispastic activity is measured in mice of an average weight of […]
± 3 g by administering a suspension of charcoal in gum arabic and
checking after two hours whether the charcoal has reached the initial
portion of the colon. In non-treated subjects the charcoal reaches this
transit of the charcoal. Evaluation of the results is effected as
ED50 in mg/kg body weight of the animal, i.e., the dose at which the […]

Solubility = format: physicochemical; settings: for Solubility in water: in words
gastric secretion [2] = experiment: Comparison of antisecretive activity, rats with tied pylorus, oral aqueous suspension; format: in vivo; settings: for ED50: Rattus norvegicus, po, read-out: Antisecretive activity (dose which reduces the gastric secretion by 50%)
Procedure: (*)The antisecretive activity is defined as the dose in mg/kg of body
weight of the animal, which reduces the gastric secretion by 50%. The
evaluation is effected by considering the decrease in quantity of secrete
gastric juice as compared with controls. Rats of an average weight of 200
± 20 grams are employed of which the lower part of the stomach at the
level of the pylorus is tied to collect the gastric juice during the
indicated periods. The preparations are administered orally in the form o

[3] = tested on: gastric lesions from Indomethacin; experiment: Protective activity against gastric lesions due to Indomethacin; format: in vivo, rats; settings: for Protective activity ED50: 240 min; for ED50: Rattus norvegicus, po, 4 h, read-out: Protective activity ED50
Procedure: The activity is defined as the dose in mg/kg of body weight to the animal, which prevents in 50% of the treated subjects arising of lesions due to Indomenthacin.
The protective preparations are administered orally in aqueous suspension.

[4] = Acute toxicity (DL50) in the mouse; format: in vivo; settings: in vivo
Description: *1 DL50 in the mouse mg/kg iv.
Examples of differences between toxicity (DL50 in
the mouse) by intravenous administration and oral
administration in mg/kg. Variation in therapeutic

gastric secretion [5] = experiment: Anti-secretive activity in the rat by gastric stimulus, oral; format: in vivo; settings: oral (Table 1), read-out: Activity B: anti-secretive activity ED50
Procedure: *3 Anti-secretive activity in the rat by gastric stimulus, ED50 mg/k

gastric secretion [6] = experiment: Anti-secretive activity in the rat with lig. pylorus, iv; format: in vivo; settings: for Therapeutic coefficient iv. 2/3: DL50 iv / ED50 iv (Table 2)
gastric secretion [7] = experiment: Anti-secretive activity, oral (comparison of iv and oral therapeutic coefficient); format: in vivo; settings: oral (Table 2)
Description: | *6 Anti-secretive activity ED50 oral | *7 Therapeutic coefficient oral

[8] = rat, in vivo, po
[9] = dog, in vivo, po
[10] = charcoal after two hours, orally (later Table 3)
[11] = oral, Indomethacin 16 mg/kg orally
[12] = mouse, vegetable carbon test (Table 3), read-out: Anti-spastic activity ED50
[13] = iv, iv (Table 1), read-out: DL50 value
[14] = Rattus norvegicus, iv, read-out: Activity A: anti-secretive activity ED50
[15] = Rattus norvegicus, iv, read-out: Anti-secretive activity ED50
[16] = Rattus norvegicus, iv, read-out: Anti-secretive activity ED50 i.v.
[17] = po, charcoal after two hours, orally (later Table 3), read-out: Antispastic activity ED50
[18] = iv (Table 1), read-out: DL50 value
[19] = oral (Table 2), read-out: DL50 oral
[20] = Rattus norvegicus, iv, i.v. (Table 2), read-out: Anti-secretive activity ED50 i.v.
[21] = rat with lig. pylorus, iv (Table 1), read-out: Activity A: anti-secretive activity ED50

| Structure (SMILES) | Antisecretive activity (dose which reduces the gastric secretion by 50%) (gastric secretion [2]; oral, 15 hrs, 900 min) | ED50 [1, 12] | Ratio 3/2 [1] | LD50 [4, 13] | ED50 (gastric secretion [5]) | ED50 (gastric secretion [6]; [14]) | ED50 (gastric secretion [6]; [16]) | Therapeutic coefficient iv. 2/3 (gastric secretion [6]; iv) | ED50 (gastric secretion [7]) | ED50 [1, 17] | ED50 (gastric secretion [2]; 2.5 h, oral, 2.5 hrs) | ED50 (gastric secretion [2]; 5 h, oral, 5 hrs) | ED50 (gastric secretion [2]; 10 h, oral, 10 hrs) | ED50 (gastric secretion [2]; 15 h, oral, 15 hrs) | ED50 [3, 11] | Therapeutic coefficient oral (gastric secretion [7]) | further results |
| --- | --- | --- | --- | --- | --- | --- | --- | --- | --- | --- | --- | --- | --- | --- | --- | --- | --- |
| O=C(N[C@@H](Cc1c[nH]c2ccccc12)C(=O)O)c1ccc(Cl)cc1 [CR 501 magnesium salt, N-p-chloro-benzoyl-L-tryptophane magnesium salt] | 135 mg/kg |  |  |  |  |  |  |  |  |  |  |  |  |  |  |  | Antispastic activity ED50 [1, 10]: 278 mg/kg; Solubility in ethanol (Solubility; listed as Example 55): soluble; Solubility in methanol (Solubility; listed as Example 55): soluble; Solubility in water (Solubility; water, listed as Example 55): Very slightly soluble; Antisecretive activity (dose which reduces the gastric secretion by 50%) (gastric secretion [2]; oral, 2.5 hrs, 150 min): 230 mg/kg; Antisecretive activity (dose which reduces the gastric secretion by 50%) (gastric secretion [2]; oral, 5 hrs, 300 min): 180 mg/kg; Antisecretive activity (dose which reduces the gastric secretion by 50%) (gastric secretion [2]; oral, 10 hrs, 600 min): 146 mg/kg; Protective activity ED50 [3, 11]: 162 mg/kg/os |
| Cc1ccc(COC(=O)N[C@@H](Cc2c[nH]c3ccccc23)C(=O)O)cc1 [Ex. 9 (CR454), N-p-methyl-carbobenzoxy-L-tryptophane] |  | 120 mg/kg | 1.6 | 320 mg/kg | 125 mg/kg | 187 mg/kg | 166 mg/kg | 1.9 | 268 mg/kg |  |  |  |  |  |  |  | ED50 (gastric secretion [6]; [15]): 187 mg/kg |
| Cc1ccc(C(=O)N[C@@H](Cc2c[nH]c3ccccc23)C(=O)O)cc1 [Ex.21 (CR510), N-p-toluyl-L-tryptophane] |  |  |  |  | 318 mg/kg | 184 mg/kg | 184 mg/kg | 3.8 | 346 mg/kg | 487 mg/kg | 490 mg/kg | 407 mg/kg | 346 mg/kg | 583 mg/kg | 382 mg/kg | 5.8 | LD50 [4, 18]: 700 mg/kg; LD50 [4, 19]: 2000 mg/kg |
| O=C(N[C@@H](Cc1c[nH]c2ccccc12)C(=O)O)c1ccc(Cl)cc1 [Ex.18 (CR501), N-p-chloro-benzoyl-L-tryptophane] | 361 mg/kg | 82 mg/kg | 1.7 |  | 110 mg/kg |  |  | 1.9 | 150 mg/kg | 248 mg/kg | 171 mg/kg | 143 mg/kg | 150 mg/kg |  | 234 mg/kg | 7.3 | Antispastic activity, in words ([1]; mouse, in vivo): active as antispastic; LD50 [4, 18]: 263 mg/kg; LD50 [4, 19]: 1100 mg/kg; Acute and chronical toxicity [8]: without exhibiting any appreciable symptom of toxicity; Solubility in water (Solubility; water, listed as CR 501): water-insoluble; Solubility in water (Solubility; water, listed as CR501): insoluble in water; Start of antisecretive activity from administration (gastric secretion [2]; oral): < 5 h; Extent in time of antisecretive activity (gastric secretion [2]; oral, with a gradual sinking): up to 15 hours; ED50 (gastric secretion [6]; Rattus norvegicus, iv, compared with anti-spastic activity (Table 3), read-out: Anti-secretive activity ED50): 139 mg/kg; ED50 (gastric secretion [6]; [20]): 139 mg/kg; ED50 (gastric secretion [6]; [21]): 139 mg/kg; Protective activity against Indomethacin lesions, in words ([3]; oral): efficient activity in preventing gastric lesions; Acute and chronical toxicity [9]: without exhibiting any appreciable symptom of toxicity |
| O=C(N[C@@H](Cc1c[nH]c2ccccc12)C(=O)[O-])c1ccc(Cl)cc1.[Na+] |  |  |  |  |  |  |  |  |  |  |  |  |  |  |  |  | ED50 ([1]; ip, read-out: Antispastic activity ED50): 82 mg/kg; ED50 ([1]; po, read-out: Antispastic activity ED50): 192 mg/kg; Solubility in acetone (Solubility; acetone): Highly soluble; Solubility in ethanol (Solubility): Highly soluble; Solubility in methanol (Solubility): Highly soluble; solubility (Solubility; water): ~50 mg/mL; ED50 (gastric secretion [2]; 2.5 h): 118 mg/kg; ED50 (gastric secretion [2]; 5 h): 141 mg/kg; ED50 (gastric secretion [2]; 10 h): 147 mg/kg; ED50 (gastric secretion [2]; 15 h): 410 mg/kg; ED50 [3]: 210 mg/kg |
| O=C(N[C@@H](Cc1c[nH]c2ccccc12)C(=O)O)c1ccc(Cl)cc1 [CR 501 aluminium salt, N-p-chloro-benzoyl-L-tryptophane aluminium salt] | 163 mg/kg |  |  |  |  |  |  |  |  |  |  |  |  |  |  |  | Antispastic activity ED50 [1, 10]: 270 mg/kg; Solubility in ethanol (Solubility; listed as Example 56): Soluble; Solubility in methanol (Solubility; listed as Example 56): Soluble; Solubility in water (Solubility; water, listed as Example 56): very slightly soluble; Antisecretive activity (dose which reduces the gastric secretion by 50%) (gastric secretion [2]; oral, 2.5 hrs, 150 min): 195 mg/kg; Antisecretive activity (dose which reduces the gastric secretion by 50%) (gastric secretion [2]; oral, 5 hrs, 300 min): 152 mg/kg; Antisecretive activity (dose which reduces the gastric secretion by 50%) (gastric secretion [2]; oral, 10 hrs, 600 min): 150 mg/kg; Protective activity ED50 [3, 11]: 174 mg/kg/os |
| O=C(N[C@@H](Cc1c[nH]c2ccccc12)C(=O)O)OCc1ccc(Br)cc1 [Ex. 6 (CR451), N-p-bromo-carbobenzoxy-L-tryptophane] |  |  |  | 125 mg/kg | 77 mg/kg | 92.1 mg/kg | 99 mg/kg | 1.9 | 133 mg/kg | 275 mg/kg | 180 mg/kg | 148 mg/kg |  | 405 mg/kg | 335 mg/kg |  | LD50 ([4]; iv, iv (Table 2), read-out: DL50 iv): 185 mg/kg; Antisecretive activity (dose which reduces the gastric secretion by 50%) (gastric secretion [2]; oral, 10 hrs, listed as CR 451 (Ex. 6), 600 min): 133 mg/kg |
| O=C(N[C@@H](Cc1c[nH]c2ccccc12)C(=O)O)OCc1ccc(Cl)cc1 [Ex. 1 (CR449), N-p-chloro-carbobenzoxy-L-tryptophane] |  | 72 mg/kg | 1.8 | 240 mg/kg | 127 mg/kg | 131 mg/kg | 131 mg/kg | 1.8 | 154 mg/kg |  | 121 mg/kg | 98 mg/kg | 115 mg/kg | 155 mg/kg | 182 mg/kg | 9.1 | LD50 ([4]; po, oral (Table 2), read-out: DL50 oral): 1410 mg/kg; ED50 (gastric secretion [6]; [15]): 131 mg/kg |
| COc1ccc(COC(=O)N[C@@H](Cc2c[nH]c3ccccc23)C(=O)O)cc1 [Ex.32 (CR462), N-p-methoxy-carbobenzoxy-L-tryptophane] |  |  |  | 430 mg/kg | 114 mg/kg |  |  | 3.2 | 142 mg/kg |  |  |  |  |  |  |  | ED50 (gastric secretion [6]; [20]): 133 mg/kg; ED50 (gastric secretion [6]; [21]): 146 mg/kg |
